From patent publication US11105794B2, “In vitro nephrotoxicity screening assay” (Hoffmann-La Roche Inc., priority 2016, dated 2021)
l = locked nucleic acid (LNA); d = 2'-deoxy (DNA)

Columns and labels:
[1] = tested on: Wistar Han Crl:WI(Han) male rats; assay: In vivo nephrotoxicity in rats
Description: Purpose bred Wistar Han Crl:WI(Han) male rats obtained from Charles River Laboratories at 7 to 8 weeks of age were divided into groups of 4 (table 1, exp. A) or 8 (table 1, exp. B) based on body weight and acclimatized for at least 5 days before dosing. The animals were housed under standard environmental conditions ([…], relative humidity 50±20%, a light/dark cycle 12 h/12 h, pelleted food and water ad libitum), were offered enriched environment in an AAALAC accredited facility and were regularly and carefully monitored. All procedures were in accordance with the respective local regulations and according to the animal permissions granted by the Institutional Animal Care and Use Committee. Test compounds were formulated in isotonic sterile saline, sterile filtered (0.22 μm), and dosed at 40 mg/kg on days 1 and 8 (2.5 ml/kg) in the intrascapular region. Control group animals received saline as vehicle control. On day 15 animals were orally administered tap water (10 ml/kg), and urine was collected on ice for 6 hours in metabolic cages. […] On day 15 the rats were sacrificed by an intraperitoneal injection of pentobarbital and exsanguinated. Kidney cortex samples were collected and fixed by immersion in 10% neutral buffered formalin, embedded in paraffin, sectioned to 5 μm and stained with hematoxylin and eosin (H&). The H&E sections were then scanned at 20× magnification using an Aperio ScanScope AT™ (Leica Biosystems) scanner and pictures were then captured via ImageScope™ software from the scanned images. One or more of the following parameters were assessed kidney weight, serum creatinine, urine protein, KIM-1 protein in urine, KIM-1 mRNA, kidney degeneration/regeneration and relative tubulotoxicity grade.

[2] = tested on: Primary human hepatocytes; assay: EGF assay, culture media of primary human hepatocytes; assay type: cell-based; settings: 10 ng/ml EGF in medium;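 further: values as percent of saline vehicle control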
Description: Cryopreserved human hepatocytes were suspended in William's Medium E (WME) without phenol red (Sigma W-1878) supplemented with 10% fetal calf serum, penicillin (100 U/ml), streptomycin (0.1 mg/ml) at a density of approx. 1×10^6 cells/ml and seeded into collagen-coated 96-well plates (Becton Dickinson AG, Allschwil, Switzerland) at a density of 0.4×10^5 cells/well. Cells were pre-cultured for 3 to 4 h allowing for attachment to cell culture plates before start of treatment with oligonucleotides.
Before oligonucleotide treatment the seeding medium was replaced by 90 μl of serum free WME.
The total volume of each well was 100 μl. PBS served as vehicle control.
Human primary hepatocytes were cultivated as described in the “Materials and methods” section with addition of 10 ng/ml of EGF to the medium. At confluence the cells were treated with oligonucleotide as described in the “Materials and methods” section, in concentrations of 10 or 100 μM.
The medium was obtained at day 3, and the EGF level was measured according to the assay described in the “Materials and methods” section.

A549 cells [3] = assay: EGF assay, A549 cells transfected with oligonucleotide; assay type: cell-based, human; settings: A549, 48 hours after transfection;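 further: values as percent of saline control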
Description: (§1) A549 cells (ATCC CCL-185) were cultivated according to the manufacturer's instructions in A549 medium [F-12K Nut Mix (Gibco, 21127-022), 1% penicillin/streptomycin (Gibco: 15140-122), 10% FBS (Gibco 16000-044)].
(§2) Prior to treatment with oligonucleotides the A549 cells were seeded in 96 well plates at 3′000 cells per well in A549 regular medium and grown until 60% confluence. […]
(§3) A549 were cultivated as described in the “Materials and methods” section. At after at 50-60% confluence the oligonucleotides were transfected into the cells using 0.5 μl Lipofectamin (Invitrogen, 11668-019) in 25 μl OptiMEM® (GIBCO 31985062) and 1 ng or 10 ng oligonucleotide in the same volume OptiMEM. The cells were incubated over night at 37° C. The medium was changed using A459 regular medium+10 ng/ml EGF. 48 hours after transfection the medium was collected for EGF measurements and the cells were harvested for ATP measurements.

A549 cells [4] = assay: Intracellular ATP assay, A549 cells transfected with oligonucleotide; assay type: cell-based, human; settings: A549, 48 hours after transfection;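 further: ATP as percent of saline control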
Description: as §1, §2
Each sample was tested in triplicate.
as §3

PCSK9 mRNA = assay: Target knock down (PCSK9 mRNA levels) in PTEC-TERT1 cells; assay type: cell-based, human; settings: normalized to PPIB
Description: For assessment of the target knock down (PCSK9 mRNA levels) total mRNA was extracted from the cells adding 100 μl of 1× RNA lysis mixture (QuantiGene® Sample Processing Kit, QS0101) directly into the wells according to the manufacturer's instructions. RNA lysis mixtures were kept at −80° C. until analysis. For gene expression analysis, 20 μl of lysates were mixed with an mRNA-capture magnetic beads sets (Panomics QuantiGene® Plex Set catalog #12697), incubated overnight, processed for branched DNA amplification and analyzed according to the manufacturer's instructions (Panomics QuantiGene® Plex Assay kit, QP1015). The PPIB probe was used as housekeeping gene for normalization. Average Fluoresence Intensity (FI) and standard deviation of 3 biological replicates were calculated and normalized on vehicle control. The results are shown in table 11, and represent the average of three identical treatments.

PTEC-TERT1 cells [5] = assay: EGF assay, supernatant of PTEC-TERT1 cells
Description: (§4) Prior to treatment with oligonucleotides the PTEC-TERT1 were seeded into collagen I-coated 96-well plates (Corning, 356407) at a density of 40 000 and 20 000 cells/well respectively in PTEC medium and grown until confluence.
(§5) Oligonucleotides were dissolved in PBS and added to the cell culture at the given concentration, such as 10, 30 or 100 μM. The total volume of each well was 100 μl. PBS served as vehicle control.
(§6) When extra cellular markers, like EGF and KIM-1, were analyzed following the oligonucleotide treatment the medium was collected and stored at −20° C. until further analysis. […] The collected medium was stored at −20° C.
(§7) For analysis of human EGF, cell supernatants were thawed on ice, diluted 1:2 and 1:10 in sample dilution buffer (BioRad catalog # M60-009RDPD) and analyzed by Luminex®-based ELISA using human EGF beads (Bio-Plex Pro™ Human Cancer Biomarker Panel 2 EGF Set#171BC603M), or followed by analysis using the Bio-Plex® 200 Systems (BioRad) according to the manufacturer's instructions. Data are reported as mean concentrations and standard deviations of triplicate wells.

PTEC-TERT1 cells [6] = assay: Morphological changes of PTEC-TERT1 cells upon oligonucleotide treatment; assay type: cell-based, human; settings: 100 μM oligonucleotide, 7 days, bright field microscopy, vs saline
Description: PTEC-TERT1 cells were cultures as described in the “Materials and methods” section. To mimic the physiological exposure of renal tubules to circulating naked oligonucleotide (i.e. without assistance of delivery technology, herein termed gymnosis or gymnotic delivery), confluent monolayers of PTEC-TERT1 cells were exposed to an aqueous solution of 100 μM oligonucleotide. The medium was replaced every three days including 100 μM fresh oligonucleotide in the fresh medium.
After 7 days of treatment the morphological alterations in the treated cell cultures were investigated under bright field microscopy.

[7] = tested on: Human primary proximal tubule epithelial cells (PTEC); assay: EGF assay, supernatant of primary PTEC cells
Description: Prior to treatment with oligonucleotides the primary PTEC cells were seeded into collagen I-coated 96-well plates (Corning, 356407) at a density of 40 000 and 20 000 cells/well respectively in PTEC medium and grown until confluence.
as §5, §6
For analysis of human EGF, cell supernatants were thawed on ice, diluted 1:2 and 1:10 in sample dilution buffer (BioRad catalog # M60-009RDPD) and analyzed by Luminex®-based ELISA using human EGF beads (Bio-Plex Pro™ Human Cancer Biomarker Panel 2 EGF Set#171BC603M), or followed by analysis using the Bio-Plex® 200 Systems (BioRad) according to the manufacturer's instructions. Data are reported as mean concentrations and standard deviations of triplicate wells. An increase of EGF levels above 200% was considered as predictive for nephrotoxicity.

PTEC-TERT1 cells [8] = tested on: PTEC-TERT1 cells
Description: as §4, §5, §6, §7

PTEC-TERT1 cells [9] = tested on: PTEC-TERT1 cells; remark: listed apart in the source
Description: as §4, §5, §6
For analysis of human KIM-1, cell supernatants were thawed on ice, diluted 1:2 and 1:10 in sample dilution buffer (BioRad catalog # M60-009RDPD) and analyzed by Luminex®-based ELISA using human KIM-1 beads (Human Kidney Injury panel 4, Millipore HKI4MAG-99K-KIM1) followed by analysis using the Bio-Plex® 200 Systems (BioRad) according to the manufacturer's instructions. Data are reported as mean concentrations and standard deviations of triplicate wells. An increase of KIM-1 levels above 200% was considered as predictive for nephrotoxicity.

[10] = PTEC-TERT1, Day 3, 11 μM (Table 3)
[11] = PTEC-TERT1, Day 3, 33 μM (Table 3)
[12] = PTEC-TERT1, Day 3, 100 μM (Table 3)
[13] = PTEC-TERT1, Day 7, 11 μM (Table 3)
[14] = PTEC-TERT1, Day 7, 33 μM (Table 3)
[15] = PTEC-TERT1, Day 7, 100 μM (Table 3)
[16] = PTEC-TERT1, Day 10, 11 μM (Table 3)
[17] = PTEC-TERT1, Day 10, 33 μM (Table 3)
[18] = PTEC-TERT1, Day 10, 100 μM (Table 3)

AATgctacaaaaCCCA (antisense AATGCTACAAAACCCA; sugars from the 5' end l3 d9 l4, backbone and methylation of C not given here) [Compound 2-1]
In vivo nephrotoxicity / in vivo grade of toxicity ([1]; 40 mg/kg on days 1 and 8, assessed day 15, 40 mg/kg): low and Low
EGF ([2]; day 3, 10 μM): 122 % saline
EGF ([2]; day 3, 100 μM): 211 % saline
EGF (A549 cells [3]; 1 ng oligonucleotide): 80 % saline
EGF (A549 cells [3]; 10 ng oligonucleotide): 161 % saline
ATP (A549 cells [4]; 1 ng oligonucleotide): 96 % saline
ATP (A549 cells [4]; 10 ng oligonucleotide): 59 % saline
PCSK9 mRNA (PCSK9 mRNA; PTEC-TERT1, EGF 0 ng/ml in medium): 1.73 % of saline
PCSK9 mRNA (PCSK9 mRNA; PTEC-TERT1, EGF 10 ng/ml in medium): 1.02 % of saline
EGF (PTEC-TERT1 cells [5]; [10]): 135 % saline
EGF (PTEC-TERT1 cells [5]; [11]): 192 % saline
EGF (PTEC-TERT1 cells [5]; [12]): 172 % saline
EGF (PTEC-TERT1 cells [5]; [13]): 69 % saline
EGF (PTEC-TERT1 cells [5]; [14]): 88 % saline
EGF (PTEC-TERT1 cells [5]; [15]): 117 % saline
EGF (PTEC-TERT1 cells [5]; [16]): 47 % saline
EGF (PTEC-TERT1 cells [5]; [17]): 63 % saline
EGF (PTEC-TERT1 cells [5]; [18]): 154 % saline

CGTcagtatgcgAATc (CGTCAGTATGCGAATC; chemistry not given here) [Compound 1-1]
morphological changes (PTEC-TERT1 cells [6]): did not show any morphological changes
EGF ([2]; day 3, 10 μM): 123 % saline
EGF ([2]; day 3, 100 μM): 159 % saline
EGF (A549 cells [3]; 1 ng oligonucleotide): 69 % saline
EGF (A549 cells [3]; 10 ng oligonucleotide): 75 % saline
ATP (A549 cells [4]; 1 ng oligonucleotide): 89 % saline
ATP (A549 cells [4]; 10 ng oligonucleotide): 100 % saline
EGF (PTEC-TERT1 cells [5]; PTEC-TERT1, Day 3, 3 μM (Table 2)): 88 % saline
EGF (PTEC-TERT1 cells [5]; PTEC-TERT1, Day 3, 10 μM (Table 2)): 93 % saline
EGF (PTEC-TERT1 cells [5]; [10]): 145 % saline
EGF (PTEC-TERT1 cells [5]; PTEC-TERT1, Day 3, 30 μM (Table 2)): 108 % saline
EGF (PTEC-TERT1 cells [5]; [11]): 214 % saline
EGF (PTEC-TERT1 cells [5]; PTEC-TERT1, Day 3, 100 μM (Table 2)): 119 % saline
EGF (PTEC-TERT1 cells [5]; [12]): 137 % saline
EGF (PTEC-TERT1 cells [5]; PTEC-TERT1, Day 6, 3 μM (Table 2)): 124 % saline
EGF (PTEC-TERT1 cells [5]; PTEC-TERT1, Day 6, 10 μM (Table 2)): 152 % saline
EGF (PTEC-TERT1 cells [5]; PTEC-TERT1, Day 6, 30 μM (Table 2)): 180 % saline
EGF (PTEC-TERT1 cells [5]; PTEC-TERT1, Day 6, 100 μM (Table 2)): 172 % saline
EGF (PTEC-TERT1 cells [5]; [13]): 94 % saline
EGF (PTEC-TERT1 cells [5]; [14]): 122 % saline
EGF (PTEC-TERT1 cells [5]; [15]): 135 % saline
EGF (PTEC-TERT1 cells [5]; [16]): 32 % saline
EGF (PTEC-TERT1 cells [5]; [17]): 41 % saline
EGF (PTEC-TERT1 cells [5]; [18]): 59 % saline
EGF ([7]; Day 3, 3 μM): 95 % saline
EGF ([7]; Day 3, 10 μM): 99 % saline
EGF ([7]; Day 3, 30 μM): 112 % saline
EGF ([7]; Day 3, 100 μM): 120 % saline
EGF ([7]; Day 6, 3 μM): 62 % saline
EGF ([7]; Day 6, 10 μM): 71 % saline
EGF ([7]; Day 6, 30 μM): 77 % saline
EGF ([7]; Day 6, 100 μM): 98 % saline

Compound 20-1: antisense oligonucleotide comprising 2′-O-methoxyethyl-RNA (MOE) modifications, targeting sodium-glucose co-transporter 2 (SGLT2), SEQ ID NO 20 (GGCATGAGCTTC; MOE modifications, pattern not given here)
In vivo nephrotoxicity / in vivo grade of toxicity ([1]; 40 mg/kg on days 1 and 8, assessed day 15): low/medium
prediction of in vivo nephrotoxicity with EGF as biomarker (PTEC-TERT1 cells [8]): could be predicted
predictive KIM-1 elevation (PTEC-TERT1 cells [9]): observed
